Reference: ChEMBL document CHEMBL5715954, “Silencing c-Myc translation as a therapeutic strategy through targeting PI3Kδ and CK1ε in hematological malignancies” (Blood, 2017)

Legend:
Design in all cases: scale not given: the % may be the effect or the level left
[1] = molecular target: Tyrosine-protein kinase ABL1 (Homo sapiens) (UniProt P00519); test: Inhibition of human ABL1 assessed as enzyme activity at 1 uM using EAIYAAPFAKKK as substrate preincubated for 20 mins followed by [gamma-33P]-ATP addition and measured after 120 mins by radiometric Hot-SpotSM Kinase assay relative to control
Tyrosine-protein kinase ABL1 (Homo sapiens), sequence (P00519 whole entry): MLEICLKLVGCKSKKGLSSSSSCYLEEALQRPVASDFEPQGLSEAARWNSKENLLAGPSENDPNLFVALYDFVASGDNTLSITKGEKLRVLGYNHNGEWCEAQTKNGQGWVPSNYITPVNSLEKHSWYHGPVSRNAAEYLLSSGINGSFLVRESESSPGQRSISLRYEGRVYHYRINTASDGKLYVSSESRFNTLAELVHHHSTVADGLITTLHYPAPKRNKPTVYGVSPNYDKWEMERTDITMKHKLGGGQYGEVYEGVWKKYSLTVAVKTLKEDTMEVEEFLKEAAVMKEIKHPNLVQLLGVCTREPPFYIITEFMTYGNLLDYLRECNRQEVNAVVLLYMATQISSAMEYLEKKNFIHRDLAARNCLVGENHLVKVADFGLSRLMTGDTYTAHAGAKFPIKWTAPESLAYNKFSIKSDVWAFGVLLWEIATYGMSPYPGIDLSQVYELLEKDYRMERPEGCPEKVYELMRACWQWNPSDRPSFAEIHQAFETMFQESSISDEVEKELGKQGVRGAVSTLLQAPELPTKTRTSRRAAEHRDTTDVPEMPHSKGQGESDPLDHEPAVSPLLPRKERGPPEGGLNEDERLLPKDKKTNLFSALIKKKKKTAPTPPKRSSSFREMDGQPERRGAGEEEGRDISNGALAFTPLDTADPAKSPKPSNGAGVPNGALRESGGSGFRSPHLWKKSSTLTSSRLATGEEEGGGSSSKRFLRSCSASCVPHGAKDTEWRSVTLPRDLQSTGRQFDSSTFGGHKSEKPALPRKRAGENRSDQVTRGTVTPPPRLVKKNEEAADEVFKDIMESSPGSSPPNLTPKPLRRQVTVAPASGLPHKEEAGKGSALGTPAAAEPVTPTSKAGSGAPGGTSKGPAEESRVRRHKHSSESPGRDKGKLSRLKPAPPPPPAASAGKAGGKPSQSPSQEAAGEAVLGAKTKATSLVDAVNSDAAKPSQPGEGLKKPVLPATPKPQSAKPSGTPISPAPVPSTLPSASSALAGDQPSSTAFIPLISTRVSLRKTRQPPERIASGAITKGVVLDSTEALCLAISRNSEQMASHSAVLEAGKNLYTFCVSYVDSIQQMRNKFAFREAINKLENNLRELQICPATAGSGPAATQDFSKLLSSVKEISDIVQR

[2] = molecular target: Death-associated protein kinase 1 (Homo sapiens) (UniProt P53355); test: Inhibition of human DAPK1 assessed as enzyme activity at 1 uM using KKLNRTLSFAEPG as substrate preincubated for 20 mins followed by [gamma-33P]-ATP addition and measured after 120 mins by radiometric Hot-SpotSM Kinase assay relative to control
Death-associated protein kinase 1 (Homo sapiens), sequence (P53355 whole entry, looked up): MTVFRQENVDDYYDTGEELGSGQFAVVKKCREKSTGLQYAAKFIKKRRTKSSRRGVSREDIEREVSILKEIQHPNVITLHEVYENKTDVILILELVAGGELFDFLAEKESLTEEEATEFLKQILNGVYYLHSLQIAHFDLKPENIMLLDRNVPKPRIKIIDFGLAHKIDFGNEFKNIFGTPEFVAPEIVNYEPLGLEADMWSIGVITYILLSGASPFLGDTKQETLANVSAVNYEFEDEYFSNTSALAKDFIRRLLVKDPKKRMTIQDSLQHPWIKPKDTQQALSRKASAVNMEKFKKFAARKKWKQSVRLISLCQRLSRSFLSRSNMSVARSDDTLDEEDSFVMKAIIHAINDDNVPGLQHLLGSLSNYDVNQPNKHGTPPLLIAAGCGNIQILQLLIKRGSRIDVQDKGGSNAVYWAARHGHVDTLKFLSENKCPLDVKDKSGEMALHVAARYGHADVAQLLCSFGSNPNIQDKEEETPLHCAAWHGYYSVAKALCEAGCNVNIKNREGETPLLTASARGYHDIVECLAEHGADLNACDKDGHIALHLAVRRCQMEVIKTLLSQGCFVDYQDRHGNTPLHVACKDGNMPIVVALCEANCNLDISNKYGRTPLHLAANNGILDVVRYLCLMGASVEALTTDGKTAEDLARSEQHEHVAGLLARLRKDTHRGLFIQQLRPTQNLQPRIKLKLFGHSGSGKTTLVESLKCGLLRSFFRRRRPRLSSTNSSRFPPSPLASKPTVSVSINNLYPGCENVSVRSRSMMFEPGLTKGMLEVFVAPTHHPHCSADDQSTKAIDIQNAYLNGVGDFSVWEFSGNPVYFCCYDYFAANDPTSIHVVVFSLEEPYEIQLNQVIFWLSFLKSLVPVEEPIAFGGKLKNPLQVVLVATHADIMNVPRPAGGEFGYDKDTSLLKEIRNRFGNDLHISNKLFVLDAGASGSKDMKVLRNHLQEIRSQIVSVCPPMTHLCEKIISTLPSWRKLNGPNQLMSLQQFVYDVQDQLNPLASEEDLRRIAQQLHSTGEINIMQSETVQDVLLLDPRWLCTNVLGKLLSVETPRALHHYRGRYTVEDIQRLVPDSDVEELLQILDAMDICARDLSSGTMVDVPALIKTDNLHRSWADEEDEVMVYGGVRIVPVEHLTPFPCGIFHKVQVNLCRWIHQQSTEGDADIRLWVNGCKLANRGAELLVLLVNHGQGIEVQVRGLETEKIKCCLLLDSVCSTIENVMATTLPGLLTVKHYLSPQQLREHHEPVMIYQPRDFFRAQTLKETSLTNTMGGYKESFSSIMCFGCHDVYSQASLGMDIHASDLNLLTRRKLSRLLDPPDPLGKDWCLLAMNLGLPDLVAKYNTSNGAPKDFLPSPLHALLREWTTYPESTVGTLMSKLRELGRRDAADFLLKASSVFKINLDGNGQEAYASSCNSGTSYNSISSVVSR

[3] = molecular target: T1, Serine/threonine-protein kinase 17A (Homo sapiens) (UniProt Q9UEE5); test: Inhibition of human DRAK1/STK17A assessed as enzyme activity at 1 uM using KKLNRTLSFAEPG as substrate preincubated for 20 mins followed by [gamma-33P]-ATP addition and measured after 120 mins by radiometric Hot-SpotSM Kinase assay relative to control
T1 sequence (whole entry): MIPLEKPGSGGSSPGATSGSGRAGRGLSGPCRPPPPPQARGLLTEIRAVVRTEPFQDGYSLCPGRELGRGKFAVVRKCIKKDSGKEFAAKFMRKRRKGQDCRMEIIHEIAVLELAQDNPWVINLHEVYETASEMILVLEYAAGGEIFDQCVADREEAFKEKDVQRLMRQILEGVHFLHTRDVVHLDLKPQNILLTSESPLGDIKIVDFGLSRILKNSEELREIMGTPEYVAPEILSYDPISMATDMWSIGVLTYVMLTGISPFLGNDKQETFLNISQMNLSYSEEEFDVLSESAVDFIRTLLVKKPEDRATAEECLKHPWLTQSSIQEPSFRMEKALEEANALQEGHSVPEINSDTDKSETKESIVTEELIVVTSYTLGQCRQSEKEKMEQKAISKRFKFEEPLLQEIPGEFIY

[4] = molecular target: Homeodomain-interacting protein kinase 1 (Homo sapiens) (UniProt Q86Z02); test: Inhibition of human HIPK1 assessed as enzyme activity at 1 uM using myelin basic protein as substrate preincubated for 20 mins followed by [gamma-33P]-ATP addition and measured after 120 mins by radiometric Hot-SpotSM Kinase assay relative to control
Homeodomain-interacting protein kinase 1 (Homo sapiens), sequence (Q86Z02 whole entry, looked up): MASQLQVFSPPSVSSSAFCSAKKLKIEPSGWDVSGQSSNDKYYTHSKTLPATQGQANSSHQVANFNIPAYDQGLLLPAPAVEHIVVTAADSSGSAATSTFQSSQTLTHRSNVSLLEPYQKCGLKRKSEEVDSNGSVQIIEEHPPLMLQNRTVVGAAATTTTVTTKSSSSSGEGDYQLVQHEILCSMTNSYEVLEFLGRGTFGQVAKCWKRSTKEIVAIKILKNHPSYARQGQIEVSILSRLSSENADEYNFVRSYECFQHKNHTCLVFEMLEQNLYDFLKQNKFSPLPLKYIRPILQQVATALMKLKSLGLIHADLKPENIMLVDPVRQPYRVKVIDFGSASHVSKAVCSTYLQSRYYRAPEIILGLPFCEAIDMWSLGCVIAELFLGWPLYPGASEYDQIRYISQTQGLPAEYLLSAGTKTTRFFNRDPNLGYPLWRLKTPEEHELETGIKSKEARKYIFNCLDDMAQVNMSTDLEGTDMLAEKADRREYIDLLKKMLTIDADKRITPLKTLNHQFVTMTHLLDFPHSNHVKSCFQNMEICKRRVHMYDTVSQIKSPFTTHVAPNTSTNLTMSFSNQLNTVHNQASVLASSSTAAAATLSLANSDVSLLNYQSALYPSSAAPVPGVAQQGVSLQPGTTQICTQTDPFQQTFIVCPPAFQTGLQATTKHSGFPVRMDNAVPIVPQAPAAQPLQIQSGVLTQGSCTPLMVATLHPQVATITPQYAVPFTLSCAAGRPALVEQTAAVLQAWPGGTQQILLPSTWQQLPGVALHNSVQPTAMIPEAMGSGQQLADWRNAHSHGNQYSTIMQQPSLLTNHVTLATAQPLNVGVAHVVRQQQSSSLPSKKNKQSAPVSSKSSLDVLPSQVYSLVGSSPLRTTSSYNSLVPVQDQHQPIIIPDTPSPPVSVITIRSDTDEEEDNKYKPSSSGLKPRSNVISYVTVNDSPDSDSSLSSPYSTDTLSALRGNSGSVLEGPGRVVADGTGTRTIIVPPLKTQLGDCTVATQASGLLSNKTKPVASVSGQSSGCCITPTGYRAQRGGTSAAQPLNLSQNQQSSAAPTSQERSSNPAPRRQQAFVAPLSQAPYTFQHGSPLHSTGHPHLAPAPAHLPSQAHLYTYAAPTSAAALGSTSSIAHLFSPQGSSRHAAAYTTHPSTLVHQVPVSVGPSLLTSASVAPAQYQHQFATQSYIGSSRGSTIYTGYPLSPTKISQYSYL

[5] = molecular target: Mitogen-activated protein kinase 14 (Homo sapiens) (UniProt Q16539); test: Inhibition of human P38a assessed as enzyme activity at 1 uM using myelin basic protein as substrate preincubated for 20 mins followed by [gamma-33P]-ATP addition and measured after 120 mins by radiometric Hot-SpotSM Kinase assay relative to control
Mitogen-activated protein kinase 14 (Homo sapiens), sequence (Q16539 whole entry): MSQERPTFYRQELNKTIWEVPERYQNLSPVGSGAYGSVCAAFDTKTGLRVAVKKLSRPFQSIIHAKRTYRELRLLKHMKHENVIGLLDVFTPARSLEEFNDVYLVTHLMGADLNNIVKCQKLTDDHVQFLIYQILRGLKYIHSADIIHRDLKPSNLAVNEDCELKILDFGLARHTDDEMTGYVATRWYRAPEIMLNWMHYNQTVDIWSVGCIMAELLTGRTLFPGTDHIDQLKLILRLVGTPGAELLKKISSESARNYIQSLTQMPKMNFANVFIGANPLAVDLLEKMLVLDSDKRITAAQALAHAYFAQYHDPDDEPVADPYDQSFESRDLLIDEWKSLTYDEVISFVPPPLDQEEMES

[6] = molecular target: Serine/threonine-protein kinase PAK 2 (Homo sapiens) (UniProt Q13177); test: Inhibition of human PAK2 assessed as enzyme activity at 1 uM using RRRLSFAEPG as substrate preincubated for 20 mins followed by [gamma-33P]-ATP addition and measured after 120 mins by radiometric Hot-SpotSM Kinase assay relative to control
Serine/threonine-protein kinase PAK 2 (Homo sapiens), sequence (Q13177 whole entry): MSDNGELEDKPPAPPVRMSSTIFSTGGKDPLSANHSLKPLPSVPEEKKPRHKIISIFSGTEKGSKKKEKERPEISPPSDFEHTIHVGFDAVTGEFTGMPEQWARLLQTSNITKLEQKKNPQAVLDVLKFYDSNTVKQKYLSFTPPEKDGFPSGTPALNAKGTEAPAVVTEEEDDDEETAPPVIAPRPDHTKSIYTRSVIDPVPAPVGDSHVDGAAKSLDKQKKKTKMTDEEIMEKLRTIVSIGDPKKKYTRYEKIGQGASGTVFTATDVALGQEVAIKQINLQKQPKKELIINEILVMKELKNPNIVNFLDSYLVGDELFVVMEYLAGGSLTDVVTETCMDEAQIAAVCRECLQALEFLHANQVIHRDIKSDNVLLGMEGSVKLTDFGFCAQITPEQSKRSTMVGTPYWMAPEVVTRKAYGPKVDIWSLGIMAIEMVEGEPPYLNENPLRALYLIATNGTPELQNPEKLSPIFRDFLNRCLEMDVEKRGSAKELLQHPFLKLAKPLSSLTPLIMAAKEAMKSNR

[7] = molecular target: T2, Serine/threonine-protein kinase TBK1 (Homo sapiens) (UniProt Q9UHD2); test: Inhibition of human TBK1 assessed as enzyme activity at 1 uM using myelin basic protein as substrate preincubated for 20 mins followed by [gamma-33P]-ATP addition and measured after 120 mins by radiometric Hot-SpotSM Kinase assay relative to control
T2 sequence (whole entry): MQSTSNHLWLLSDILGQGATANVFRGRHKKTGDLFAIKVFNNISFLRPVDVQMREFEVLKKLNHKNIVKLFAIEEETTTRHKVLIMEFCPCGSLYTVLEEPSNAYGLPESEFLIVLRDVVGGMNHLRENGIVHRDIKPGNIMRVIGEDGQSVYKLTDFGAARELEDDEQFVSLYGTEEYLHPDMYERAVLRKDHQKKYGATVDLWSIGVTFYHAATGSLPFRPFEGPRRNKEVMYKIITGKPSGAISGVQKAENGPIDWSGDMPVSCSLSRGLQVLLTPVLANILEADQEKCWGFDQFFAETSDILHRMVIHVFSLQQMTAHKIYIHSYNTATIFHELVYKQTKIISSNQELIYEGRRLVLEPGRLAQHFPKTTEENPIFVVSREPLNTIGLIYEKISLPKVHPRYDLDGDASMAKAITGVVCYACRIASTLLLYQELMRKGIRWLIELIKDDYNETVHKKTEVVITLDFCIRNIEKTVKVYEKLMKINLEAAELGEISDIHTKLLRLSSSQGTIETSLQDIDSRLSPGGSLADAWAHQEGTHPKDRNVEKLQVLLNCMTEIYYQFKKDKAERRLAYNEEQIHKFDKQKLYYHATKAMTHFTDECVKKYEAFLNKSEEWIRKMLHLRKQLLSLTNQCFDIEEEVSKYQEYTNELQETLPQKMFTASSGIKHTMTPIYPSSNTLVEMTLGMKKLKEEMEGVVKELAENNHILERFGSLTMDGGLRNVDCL

[8] = molecular target: T3, Tyrosine-protein kinase receptor TYRO3 (Homo sapiens) (UniProt Q06418); test: Inhibition of human TYRO3 assessed as enzyme activity at 1 uM using poly[Glu:Tyr] (4:1) as substrate preincubated for 20 mins followed by [gamma-33P]-ATP addition and measured after 120 mins by radiometric Hot-SpotSM Kinase assay relative to control
T3 sequence (whole entry): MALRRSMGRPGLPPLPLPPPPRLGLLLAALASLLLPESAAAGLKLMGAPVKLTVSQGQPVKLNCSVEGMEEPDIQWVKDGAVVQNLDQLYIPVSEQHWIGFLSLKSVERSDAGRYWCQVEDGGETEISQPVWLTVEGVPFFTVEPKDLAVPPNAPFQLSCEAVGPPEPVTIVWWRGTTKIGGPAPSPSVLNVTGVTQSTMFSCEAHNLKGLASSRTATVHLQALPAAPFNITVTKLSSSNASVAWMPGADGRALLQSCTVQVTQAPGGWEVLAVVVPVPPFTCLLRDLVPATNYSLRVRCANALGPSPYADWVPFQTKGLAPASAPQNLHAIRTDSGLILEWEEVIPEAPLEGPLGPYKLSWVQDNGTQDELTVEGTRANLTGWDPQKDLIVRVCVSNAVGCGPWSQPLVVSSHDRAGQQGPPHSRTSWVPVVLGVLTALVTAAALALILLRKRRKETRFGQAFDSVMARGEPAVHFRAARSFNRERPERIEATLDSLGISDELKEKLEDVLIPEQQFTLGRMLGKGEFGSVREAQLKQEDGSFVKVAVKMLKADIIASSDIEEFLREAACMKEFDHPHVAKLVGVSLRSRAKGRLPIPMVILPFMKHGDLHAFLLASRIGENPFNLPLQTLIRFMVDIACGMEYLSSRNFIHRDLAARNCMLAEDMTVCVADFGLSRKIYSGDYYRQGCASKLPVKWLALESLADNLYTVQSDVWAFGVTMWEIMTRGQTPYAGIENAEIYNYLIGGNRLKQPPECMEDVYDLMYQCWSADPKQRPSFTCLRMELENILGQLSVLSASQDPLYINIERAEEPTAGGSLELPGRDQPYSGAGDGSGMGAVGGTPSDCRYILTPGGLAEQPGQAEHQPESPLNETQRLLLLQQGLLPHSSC

Compound	Activity [1] [%]	Activity [2] [%]	Activity [3] [%]	Activity [4] [%]	Activity [5] [%]	Activity [6] [%]	Activity [7] [%]	Activity [8] [%]
CC[C@H](Nc1ncnc2[nH]cnc12)c1nc2cccc(F)c2c(=O)n1-c1ccccc1	99.5	95	95.1	102	98.8	103	89.6	98.9
C[C@H](Nc1ncnc2nc[nH]c12)c1cc2cccc(Cl)c2c(=O)n1-c1ccccc1	97.2	97	95.4	103	94.5	100	94.4	98.5
CC(C)Oc1ccc(-c2nn([C@@H](C)c3oc4ccc(F)cc4c(=O)c3-c3cccc(F)c3)c3ncnc(N)c23)cc1F [UMBRALISIB]	95.1	99.7	92.4	101	96.9	96.8	93.9	96.8
